# Target: T1, PDE (bovine brain-derived phosphodiesterase, majority PDE4 isozyme)
# T1 construct: bovine brain-derived PDE (Sigma), majority PDE4 isozyme
# Assay: PDE-Glo phosphodiesterase assay, […] cAMP substrate
# Assay type: biochemical, Bos taurus
row,IC50,SMILES
1,26.5 µM,"Oc1ccc(/N=N/c2ccccc2)cc1 [4-PAP, 4-phenylazophenol]"
2,27.8 µM,"Oc1ccc(/C=C/c2ccccc2)cc1 [T4HS, trans-4-hydroxystilbene]"

row,SMILES,IC50
1,Oc1ccc(/C=C/c2cc(O)cc(O)c2)cc1 [resveratrol],19 µM

# — paper PMC4370454, “The 4′-Hydroxyl Group of Resveratrol Is Functionally Important for Direct Activation of PPARα” (PLoS ONE, 2015)
